# Reference: patent US20050124591A1, “Use of vitamin Ds to treat kidney disease” (priority 2003, published 2005)
# Legend:
# PAI-1 = test: Western blot of PAI-1 in primary culture of human coronary artery smooth muscle cells; type: cell-based; settings: 24 hr at 37° C.
# renin gene expression = settings: in vitro and in vivo studies, recently found; cited from earlier work
# renin mRNA expression = test: Northern blot analysis of renin mRNA expression in As4.1-hVDR cells; type: cell-based
# From the text: (§1) Using an in vitro cell culture system, the activity of paricalcitol to suppress renin gene expression was examined using previously published techniques (1,25-Dihydroxyvitamin D3 is a negative endocrine regulator of the renin-angiotensin system, J. Clin. Invest., July 2002). […] This inhibitory effect is confirmed by renin promoter-luciferase reporter assays, which examine the activity of paricalcitol to suppress renin gene transcription.
# renin gene promoter = test: renin promoter-luciferase reporter assay; type: cell-based; settings: FIG. 2
# From the text: as §1
# 24(OH)ase = test: effect of drugs on the expression of 24(OH)ase; type: cell-based; settings: compared with calcitriol
# Experimental: Two observations may be noted in these studies: (1) 100% inhibition of growth was never achieved even at 1 μM of any of the test compound. Confocal microscopy studies confirm that, although these drugs are potent in inducing the translocation of VDR from cytoplasm to nucleus, not all cells respond to VDRAs even after 2 h of exposure, which may explain the <100% inhibition.
# [1] = test system: CKD Stage 3 and 4 patients; test: dipstick proteinuria in three randomized, double-blind, placebo-controlled studies in CKD Stage 3 and 4 patients with SHPT; type: in vivo, human
# Experimental: Paricalcitol capsule, a synthetic 3rd generation vitamin D analog, and selective vitamin receptor activator (SVDRA) was evaluated in three randomized, double-blind, placebo-controlled, multicenter studies in CKD Stage 3 and 4 patients with SHPT. Two studies dosed three times a week(TIW), no more often than every other day, and 1 study was conducted with once a day dosing regimen (QD). Data from these three studies were combined and analyzed for the following safety parameters: • Calcium and phosphorus metabolism, kidney function parameters and adverse event profile • Changes in dipstick proteinuria Method: • Randomized, double-blind, placebo controlled, multicenter studies with a Pre-treatment/Washout Phase of 1-4 weeks and a Treatment Phase of 24 weeks • Patients were randomized 1:1 to paricalcitol or placebo • Major entry criteria: • Age≧18 years • CKD patients with eGFR (MDRD formula) 15-60 mL/min/1.73 m^2 • Average of the last 2 iPTH values≧150 pg/mL, all values≧120 pg/mL (iPTH measured by Nichols first generation intact PTH assay) • 2 consecutive serum calcium values between 8.0-10.0 mg/dL, and 2 consecutive serum phosphorus values≦5.2 mg/dL • Spot urinary calcium-to-creatinine ratio<0.2 • Not taking maintenance calcitonin, bisphosphonates or drugs that may affect calcium or bone metabolism. • Not taking glucocorticoids for >14 days within the last 6 months. Concurrent Phosphate Binder Usage
# Initial Dose: 2 or 4 mcg for TIW regimen and 1 or 2 mcg for QD regimen
# Dose Increment: 2 mcg for TIW regimen and 1 mcg for QD regimen
# Dose increases every 4 weeks, dose decreases every 2 weeks or sooner
# Changes in proteinuria, measured by automated semiquantitative dipstick testing, were evaluated in 195 CKD Stage 3 and 4 patients. Among them, 43.6% (41/94) of paricalcitol patients and 48.5% (49/101) of placebo patients were diabetic.
Compound,potency in reducing the PAI-1 level (PAI-1),renin gene expression (renin gene expression),renin mRNA expression (renin mRNA expression; FIG. 1),renin-inhibiting activity compared with calcitriol (renin mRNA expression; FIGS. 1A and B),suppression of the activity of the renin gene promoter compared with calcitriol (renin gene promoter),PAI-1 level (PAI-1),potency on stimulating the expression of 24(OH)ase (24(OH)ase),"patients who had a decrease in proteinuria ([1]; patients on ACEI/ARB therapy with proteinuria at baseline (22/42), placebo 27% (11/41), p=0.025) [%]","patients who experienced an increase in proteinuria, baseline to final visit ([1]; patients who could have an increase in proteinuria from baseline (18/76), placebo 29% (23/77), p=0.466) [%]","patients who experienced a reduction in proteinuria, baseline to final visit ([1]; patients who had proteinuria at baseline (29/57), placebo 25% (15/61), p=0.004, 24 weeks treatment) [%]"
C=C1/C(=C\C=C2/CCC[C@]3(C)[C@@H]([C@H](C)CCCC(C)(C)O)CC[C@@H]23)C[C@@H](O)C[C@@H]1O [calcitriol],equally potent,able to inhibit renin gene expression,–,–,–,–,–,–,–,–
C[C@H](/C=C/[C@H](C)C(C)(C)O)[C@H]1CC[C@H]2/C(=C/C=C3C[C@@H](O)C[C@H](O)C3)CCC[C@]12C [paricalcitol],equally potent,–,dose-dependently inhibits renin mRNA expression,a bit more potent than calcitriol,at least as potent as calcitriol,able to decrease PAI-1 level,less potent than calcitriol,52,24,51
